Values joined by “and” are separate entries in the source; they are usually repeats but may differ in a detail not shown here. Equal entries are not always repeated. “Also recorded” adds a separate entry of the source.
Assays:
[1] = system: BTK, pBTK, IKZF1, and IKZF3; assay: Degradation of BTK, pBTK, IKZF1 and IKZF3 in Mino cells (western blot); format: cell-based
Protocol: The collected cells and spleen tissues were lysed in RIPA lysis buffer (50 mM Tris-HCl, pH 7.4, 150 mM NaCl, 1% NP-40, 0.5% sodium deoxycholate, 0.1% SDS) supplemented with Halt™ Protease and Phosphatase Inhibitor Cocktail (Thermo Fisher Scientific, Cat. No. PI78440) immediately before use. Lysates were centrifuged at 15,000 × g for 10 min at 4 °C and the supernatant was quantified for total protein concentration using the Pierce BCA Protein Assay (Thermo Fisher Scientific, Cat. No. 23225). Thirty micrograms of protein were loaded onto sodium dodecyl sulfate−polyacrylamide gel for electrophoresis (Bio-Rad) and transferred onto PVDF membranes (Millipore, Cat. No. IPVH00010). […] Imaging was performed using the ECL Prime chemiluminescent western blot detection reagents (GE Healthcare, Cat. No. RPN2232) by visualization of the blots to X-Ray film or with an Imager (Kindle Biosciences, Cat. No. D1001). All western blots were subsequently processed and quantified with Imager software. Protein level was normalized to β-actin or GAPDH loading controls.

p-BTK(Y233) = biological target: T1, p-BTK(Y233) (Mus musculus, UniProt P35991); assay: Splenic p-BTK(Y233) level in mice after single RC-1 injection (western blot); format: in vivo, ICR mice; settings: for p-BTK(Y223) level, mean: Figure 5d, DMSO = 100; for p-BTK(Y233) quantification: Supplementary Figure 8, individual animals
T1 construct: from tissue; host or cells: spleen of female ICR mice
T1 sequence (P35991 whole entry): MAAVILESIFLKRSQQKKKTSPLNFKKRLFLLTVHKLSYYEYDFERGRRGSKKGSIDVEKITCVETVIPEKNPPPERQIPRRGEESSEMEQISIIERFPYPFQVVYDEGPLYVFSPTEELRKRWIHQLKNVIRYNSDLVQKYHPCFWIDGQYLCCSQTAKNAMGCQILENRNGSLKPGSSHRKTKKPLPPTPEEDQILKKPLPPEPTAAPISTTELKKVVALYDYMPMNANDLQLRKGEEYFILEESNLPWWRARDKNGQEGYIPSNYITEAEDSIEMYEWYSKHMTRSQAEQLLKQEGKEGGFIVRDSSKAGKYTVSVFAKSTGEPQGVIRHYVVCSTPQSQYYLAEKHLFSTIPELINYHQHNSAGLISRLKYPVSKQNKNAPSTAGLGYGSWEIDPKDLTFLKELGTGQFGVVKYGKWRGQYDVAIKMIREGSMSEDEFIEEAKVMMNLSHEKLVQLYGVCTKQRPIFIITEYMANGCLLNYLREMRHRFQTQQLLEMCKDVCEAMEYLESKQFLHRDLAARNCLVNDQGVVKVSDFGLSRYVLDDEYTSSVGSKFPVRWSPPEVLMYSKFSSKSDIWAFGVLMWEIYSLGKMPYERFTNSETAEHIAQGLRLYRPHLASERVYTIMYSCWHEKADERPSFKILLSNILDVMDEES
Protocol: To investigate the protein degradation effect of RC-1 in vivo, mice were subjected to single RC-1 administration at the dose of 50 or 100 mg kg^−1 (i.p.) or seven once-daily RC-1 administration at the dose of 20 mg kg^−1 (i.p.) (n = 2–3). Twenty-four hours after the one-time RC-1 injection or 24 h after the 7th injection, mice were anesthetized with isoflurane and the whole spleen was dissected and stored at −80 °C for western blot analysis of protein level.
Supplementary Figure 8. Protein degradation by BTK PROTAC RC-1 in mouse spleen. ICR mice were subjected to single IP injection of RC-1 at the dose of 50 mg/kg (n = 4) or 100 mg/kg (n = 3) and spleens were harvested 24 h after injection. (a) The splenic p-BTK(Y233), BTK, IKZF1 and IKZF3 levels were measured with Western blot. (b). Quantification of protein levels shown in (a). Data are presented as mean values ± SEM.
Asterisks indicate that the differences between samples are statistically significant, using two-tailed, unpaired t- […]
test (* p < 0.05; significant).
(1 picture or pasted object on this page, not shown here)

[2] = Pharmacokinetics of RC-1 in mice; format: in vivo, ICR mice
Protocol: The pharmacokinetic profile of the BTK PROTAC RC-1 was evaluated in female ICR mice (weighing 22-28 g, n = 3). RC-1 was formulated in a […] solvent (30% PEG-400, 5% Tween 80, and 5% DMSO in deionized water) and was administered in a single IP injection (20 mg kg^−1). Blood samples (25 µL) were withdrawn from the tail vein at the time points of 10 min, 30 min, 1 h, 2 h, 4 h, 8 h, and up to 24 h after dosing. The blood samples were collected into 1.5 mL centrifuge tubes coated with 0.5 M EDTA and were immediately centrifuged at 12,000 × g at 4 °C for 15 min. The resultant plasma was extracted with 9 vol of acetonitrile (containing internal standard: 250 nM of RNC-Ctrl) and then were centrifuged at the same conditions described above. The supernatant was stored at −80 °C for liquid chromatography-mass spectrometry analysis. The standard curve was established by serially diluted RC-1 in plasma collected from naïve mice (from 5.0 to 0.003 μg mL^−1, 4-fold dilution). The PK parameters were calculated with the Microsoft Excel PK Solver.

[3] = female, mouse, ip, 20 mg kg^−1, i.p., ICR mice, plasma

CN(CCCNC(=O)CNc1cccc2c1C(=O)N(C1CCC(=O)NC1=O)C2=O)C(C)(C)C=C(C#N)C(=O)N1CCC[C@@H](n2nc(-c3ccc(Oc4ccccc4)cc3)c3c(N)ncnc32)C1 (stereo partly drawn) [RC-1]
degradation of BTK, pBTK, IKZF1, IKZF3 (in words) [1]: induced degradation of BTK, pBTK, IKZF1, and IKZF3; also recorded: can degrade not only BTK and phosphorylated BTK but also IKZF1 and IKZF3
p-BTK(Y223) level, mean (p-BTK(Y233); 1 injection): 96.2894
p-BTK(Y223) level, mean (p-BTK(Y233); 7 injections): 85.9605
p-BTK(Y233) quantification (p-BTK(Y233); RC-1 50 mg/kg, 50 mg/kg): 61.7244 and 50.2464 and 71.4895 and 26.7569
p-BTK(Y233) quantification (p-BTK(Y233); RC-1 100 mg/kg, 100 mg/kg): 42.1872 and 10.8062 and 16.7176
AUC [2, 3]: 72 µM·h
Cmax [2, 3]: 20 µM
half-life ([2]; female, mouse, plasma, ip, 20 mg kg^−1, i.p., ICR mice, read-out: plasma half-life (t1/2) (converted)): 3.4 h
plasma concentration maintained over 24 h ([2]; single i.p. injection 20 mg/kg): above 200 nM
